Source: US20250215030A1, “STAT MODULATORS AND USES THEREOF” (Recludix Pharma, Inc., priority 2022, published 2025)
Like-named read-outs stand apart in the source and are kept apart here.

Target: T1, pSTAT3 (pY705-STAT3) (Homo sapiens, UniProt P40763)
T1 construct: host or cells: cryopreserved PBMC
Assay: MSD-pSTAT-PBMC Assay (pSTAT3, IL-6 stimulated)
Format: cell-based
How it was run: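 Human PBMCs (50,000 cells/well for STAT3, 25,000 for STAT6) treated with compound 3 h, then stimulated 10 min with 10 ng/mL IL-6 or 1 ng/mL IL-4. Lysate pSTAT3 (pY705) or pSTAT6 (pY641) measured by MSD sandwich electrochemiluminescence. Signal minus unstimulated, normalized to DMSO; IC50 by variable-slope nonlinear regression.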

[1] = PBMC, compound 3 hrs, then 10 ng/mL IL-6 for 10 min, MSD pY705-STAT3, read-out: pSTAT3

T1 sequence (P40763 whole entry): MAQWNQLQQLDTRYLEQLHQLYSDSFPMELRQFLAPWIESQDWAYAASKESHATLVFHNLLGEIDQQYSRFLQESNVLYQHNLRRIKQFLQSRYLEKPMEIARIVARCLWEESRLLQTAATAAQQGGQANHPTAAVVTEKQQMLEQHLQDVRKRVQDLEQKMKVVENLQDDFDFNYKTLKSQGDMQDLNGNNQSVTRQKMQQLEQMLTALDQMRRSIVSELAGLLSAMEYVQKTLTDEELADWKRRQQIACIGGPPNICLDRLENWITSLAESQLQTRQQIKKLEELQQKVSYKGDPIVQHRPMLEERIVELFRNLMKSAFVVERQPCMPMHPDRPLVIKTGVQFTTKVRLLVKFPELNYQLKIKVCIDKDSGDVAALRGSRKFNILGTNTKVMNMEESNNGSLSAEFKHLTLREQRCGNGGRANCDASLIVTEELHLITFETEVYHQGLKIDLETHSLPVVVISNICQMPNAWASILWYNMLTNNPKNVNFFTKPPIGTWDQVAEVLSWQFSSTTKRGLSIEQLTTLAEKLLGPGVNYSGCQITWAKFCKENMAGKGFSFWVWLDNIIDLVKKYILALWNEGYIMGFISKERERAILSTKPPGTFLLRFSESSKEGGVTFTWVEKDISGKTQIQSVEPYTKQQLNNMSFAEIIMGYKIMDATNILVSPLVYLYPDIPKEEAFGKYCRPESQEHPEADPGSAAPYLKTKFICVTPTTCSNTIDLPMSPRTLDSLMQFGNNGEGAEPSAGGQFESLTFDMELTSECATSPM

Row | SMILES | IC50 [1] [nM] | IC50 [nM]
1 | CCCOC(=O)C(C)(C)NP(=O)(Oc1ccccc1)C(F)c1ccc2sc(C(=O)N[C@H]3C[C@@H]4C[C@@H]4C[C@H]4CC[C@@H](C(=O)N5CC(c6cnccc6C)C5)N4C3=O)cc2c1 (stereo partly drawn) [Compound 285, propyl 2-(((fluoro(2-(((3S,6S,7aS,8aR,9aR)-3-(3-(4-methylpyridin-3-yl)azetidine-1-carbonyl)-5-oxodecahydro-1H-cyclopropa[d]pyrrolo[1,2-a]azocin-6-yl)carbamoyl)benzo[b]thiophen-5-yl)methyl)(phenoxy)phosphoryl)amino)-2-methylpropanoate] | < 100 | 
2 | CCCOC(=O)[C@H](C)NP(=O)(OCC(F)(F)F)C(F)c1ccc2sc(C(=O)N[C@H]3C[C@@H]4C[C@@H]4C[C@H]4CC[C@@H](C(=O)N5CC(c6cnccc6C)C5)N4C3=O)cc2c1 (stereo partly drawn) [Compound 287, propyl ((fluoro(2-(((3S,6S,7aS,8aR,9aR)-3-(3-(4-methylpyridin-3-yl)azetidine-1-carbonyl)-5-oxodecahydro-1H-cyclopropa[d]pyrrolo[1,2-a]azocin-6-yl)carbamoyl)benzo[b]thiophen-5-yl)methyl)(2,2,2-trifluoroethoxy)phosphoryl)-L-alaninate] | < 100 | 
3 | CC(C)(C)C(=O)SCCOP(=O)(OCCSC(=O)C(C)(C)C)C(F)c1ccc2sc(C(=O)N[C@H]3C[C@@H]4C[C@@H]4C[C@H]4CC[C@@H](C(=O)N5CC(c6cnccc6F)C5)N4C3=O)cc2c1 (stereo partly drawn) [Compound 306, S,S′-((((fluoro(2-(((3S,6S,7aS,8aR,9aR)-3-(3-(4-fluoropyridin-3-yl)azetidine-1-carbonyl)-5-oxodecahydro-1H-cyclopropa[d]pyrrolo[1,2-a]azocin-6-yl)carbamoyl)benzo[b]thiophen-5-yl)methyl)phosphoryl)bis(oxy))bis(ethane-2,1-diyl))bis(2,2-dimethylpropanethioate)] | < 100 | 
4 | CCCOC(=O)[C@H](C)NP(=O)(Oc1ccccc1)C(F)c1ccc2sc(C(=O)N[C@H]3C[C@@H]4C[C@@H]4C[C@H]4CC[C@@H](C(=O)N5CC(c6cnccc6C)C5)N4C3=O)cc2c1 (stereo partly drawn) [Compound 307, propyl ((fluoro(2-(((3S,6S,7aS,8aR,9aR)-3-(3-(4-methylpyridin-3-yl)azetidine-1-carbonyl)-5-oxodecahydro-1H-cyclopropa[d]pyrrolo[1,2-a]azocin-6-yl)carbamoyl)benzo[b]thiophen-5-yl)methyl)(phenoxy)phosphoryl)-L-alaninate] | < 100 | 
5 | CC(C)(C)C(=O)SCCOP(=O)(OCCSC(=O)C(C)(C)C)C(F)(F)c1ccc2sc(C(=O)N[C@H]3C[C@@H]4C[C@@H]4C[C@H]4CC[C@@H](C(=O)N5CC(c6cnccc6F)C5)N4C3=O)cc2c1 [Compound 308, S,S′-((((difluoro(2-(((3S,6S,7aS,8aR,9aR)-3-(3-(4-fluoropyridin-3-yl)azetidine-1-carbonyl)-5-oxodecahydro-1H-cyclopropa[d]pyrrolo[1,2-a]azocin-6-yl)carbamoyl)benzo[b]thiophen-5-yl)methyl)phosphoryl)bis(oxy))bis(ethane-2,1-diyl))bis(2,2-dimethylpropanethioate)] | < 100 | 
6 | CCCOC(=O)[C@H](C)NP(=O)(Oc1ccccc1)C(F)c1ccc2sc(C(=O)N[C@H]3C[C@@H]4C[C@@H]4C[C@H]4CC[C@@H](C(=O)N5CC(c6nncn6C)C5)N4C3=O)cc2c1 (stereo partly drawn) [Compound 309, propyl ((fluoro(2-(((3S,6S,7aS,8aR,9aR)-3-(3-(4-methyl-4H-1,2,4-triazol-3-yl)azetidine-1-carbonyl)-5-oxodecahydro-1H-cyclopropa[d]pyrrolo[1,2-a]azocin-6-yl)carbamoyl)benzo[b]thiophen-5-yl)methyl)(phenoxy)phosphoryl)-L-alaninate] | > 3000 | 
7 | CCCOC(=O)[C@H](C)NP(=O)(Oc1ccccc1)C(F)c1ccc2sc(C(=O)N[C@H]3C[C@@H]4C[C@@H]4C[C@H]4CC[C@@H](C(=O)N5CC(N6CCS(=O)(=O)CC6)C5)N4C3=O)cc2c1 (stereo partly drawn) [Compound 310, propyl(((2-(((3S,6S,7aS,8aR,9aR)-3-(3-(1,1-dioxidothiomorpholino)azetidine-1-carbonyl)-5-oxodecahydro-1H-cyclopropa[d]pyrrolo[1,2-a]azocin-6-yl)carbamoyl)benzo[b]thiophen-5-yl)fluoromethyl)(phenoxy)phosphoryl)-L-alaninate] |  | > 3000
8 | CCCOC(=O)[C@H](C)NP(=O)(Cc1ccc2sc(C(=O)N[C@H]3C[C@@H]4C[C@@H]4C[C@H]4CC[C@@H](C(=O)N5CC(c6cnccc6C)C5)N4C3=O)cc2c1)OCC(F)(F)F (stereo partly drawn) [Compound 311, propyl(((2-(((3S,6S,7aS,8aR,9aR)-3-(3-(4-methylpyridin-3-yl)azetidine-1-carbonyl)-5-oxodecahydro-1H-cyclopropa[d]pyrrolo[1,2-a]azocin-6-yl)carbamoyl)benzo[b]thiophen-5-yl)methyl)(2,2,2-trifluoroethoxy)phosphoryl)-L-alaninate] | < 100 | 
9 | CC(C)(C)C(=O)SCCOP(=O)(OCCSC(=O)C(C)(C)C)C(F)(F)c1ccc2sc(C(=O)N[C@H]3C[C@@H]4C[C@@H]4C[C@H]4CC[C@@H](C(=O)N5CC(c6ccccn6)C5)N4C3=O)cc2c1 [Compound 314] | < 100 | 
10 | CCCOC(=O)[C@H](C)NP(=O)(Oc1ccccc1)C(F)c1ccc2sc(C(=O)N[C@H]3C[C@@H]4C[C@@H]4C[C@H]4CC[C@@H](C(=O)N5CC(c6ncccn6)C5)N4C3=O)cc2c1 (stereo partly drawn) [Compound 315, propyl ((fluoro(2-(((3S,6S,7aS,8aR,9aR)-5-oxo-3-(3-(pyrimidin-2-yl)azetidine-1-carbonyl)decahydro-1H-cyclopropa[d]pyrrolo[1,2-a]azocin-6-yl)carbamoyl)benzo[b]thiophen-5-yl)methyl)(phenoxy)phosphoryl)-L-alaninate] | 100 to 1000 | 
11 | CCCOC(=O)[C@H](C)NP(=O)(Oc1ccccc1)C(F)c1ccc2sc(C(=O)N[C@H]3C[C@@H]4C[C@@H]4C[C@H]4CC[C@@H](C(=O)N5CC(c6ccon6)C5)N4C3=O)cc2c1 (stereo partly drawn) [Compound 316, propyl ((fluoro(2-(((3S,6S,7aS,8aR,9aR)-3-(3-(isoxazol-3-yl)azetidine-1-carbonyl)-5-oxodecahydro-1H-cyclopropa[d]pyrrolo[1,2-a]azocin-6-yl)carbamoyl)benzo[b]thiophen-5-yl)methyl)(phenoxy)phosphoryl)-L-alaninate] | < 100 | 
12 | CCCOC(=O)[C@H](C)NP(=O)(Oc1ccccc1)C(F)c1ccc2sc(C(=O)N[C@H]3C[C@H]4C[C@H]4C[C@H]4CC[C@@H](C(=O)N5CC(c6cnccc6OC)C5)N4C3=O)cc2c1 (stereo partly drawn) [Compound 319, propyl ((fluoro(2-(((3S,6S,7aR,8aS,9aR)-3-(3-(4-methoxypyridin-3-yl)azetidine-1-carbonyl)-5-oxodecahydro-1H-cyclopropa[d]pyrrolo[1,2-a]azocin-6-yl)carbamoyl)benzo[b]thiophen-5-yl)methyl)(phenoxy)phosphoryl)-L-alaninate] | < 100 | 
13 | CCCOC(=O)[C@H](C)NP(=O)(Oc1ccccc1)C(F)c1ccc2sc(C(=O)N[C@H]3C[C@H]4C[C@H]4C[C@H]4CC[C@@H](C(=O)N5CC(c6cnccc6C)C5)N4C3=O)cc2c1 (stereo partly drawn) [Compound 321, propyl ((fluoro(2-(((3S,6S,7aR,8aS,9aR)-3-(3-(4-methylpyridin-3-yl)azetidine-1-carbonyl)-5-oxodecahydro-1H-cyclopropa[d]pyrrolo[1,2-a]azocin-6-yl)carbamoyl)benzo[b]thiophen-5-yl)methyl)(phenoxy)phosphoryl)-L-alaninate] | < 100 | 
14 | CCCOC(=O)[C@H](C)NP(=O)(Oc1ccccc1)C(F)c1ccc2sc(C(=O)N[C@H]3C[C@@H]4C[C@@H]4C[C@H]4CC[C@@H](C(=O)N5CC(c6ncco6)C5)N4C3=O)cc2c1 (stereo partly drawn) [Compound 323, propyl ((fluoro(2-(((3S,6S,7aS,8aR,9aR)-3-(3-(oxazol-2-yl)azetidine-1-carbonyl)-5-oxodecahydro-1H-cyclopropa[d]pyrrolo[1,2-a]azocin-6-yl)carbmaoyl)benzo[b]thiophen-5-yl)methyl)(phenoxy)phosphoryl)-L-alaninate] | < 100 | 
15 | CCCOC(=O)[C@H](C)NP(=O)(Oc1ccccc1)C(F)c1ccc2sc(C(=O)N[C@H]3C[C@@H]4C[C@@H]4C[C@H]4CC[C@@H](C(=O)N5CC(c6ncc(C)o6)C5)N4C3=O)cc2c1 (stereo partly drawn) [Compound 325, propyl ((fluoro(2-(((3S,6S,7aS,8aR,9aR)-3-(3-(5-methyloxazol-2-yl)azetidine-1-carbonyl)-5-oxodecahydro-1H-cyclopropa[d]pyrrolo[1,2-a]azocin-6-yl)carbamoyl)benzo[b]thiophen-5-yl)methyl)(phenoxy)phosphoryl)-L-alaninate] | 100 to 1000 | 
16 | CCOC(=O)[C@H](C)NP(=O)(OCC(F)(F)F)C(F)c1ccc2sc(C(=O)N[C@H]3C[C@@H]4C[C@@H]4C[C@H]4CC[C@@H](C(=O)N5CC(c6cnccc6C)C5)N4C3=O)cc2c1 (stereo partly drawn) [Compound 329, ethyl ((fluoro(2-(((3S,6S,7aS,8aR,9aR)-3-(3-(4-methylpyridin-3-yl)azetidine-1-carbonyl)-5-oxodecahydro-1H-cyclopropa[d]pyrrolo[1,2-a]azicin-6-yl)carbamoyl)benzo[b]thiophen-5-yl)methyl)(2,2,2-trifluoroethoxy)phosphoryl)-L-alaninate] | < 100 | 
17 | CCCOC(=O)[C@H](C)NP(=O)(Oc1ccccc1)C(F)c1ccc2sc(C(=O)N[C@H]3C[C@H]4C[C@H]4C[C@H]4CC[C@@H](C(=O)N5CC(c6nncn6C)C5)N4C3=O)cc2c1 (stereo partly drawn) [Compound 332, propyl ((fluoro(2-(((3S,6S,7aR,8aS,9aR)-3-(3-(4-methyl-4H-1,2,4-triazol-3-yl)azetidine-1-carbonyl)-5-oxodecahydro-1H-cyclopropa[d]pyrrolo[1,2-a]azocin-6-yl)carbamoyl)benzo[b]thiophen-5-yl)methyl)(phenoxy)phosphoryl)-L-alaninate] | > 3000 | 
